Test results as given in US20060099676A1, “Mammalian genes involved in rapamycin resistance and tumorgenesis: rapr6 genes” (priority 2002, published 2006).

Test system: N2a cells
Assay: MTT proliferation assay: rapamycin mediated cell growth inhibition of N2a cells
Format: cell-based, mouse
Conditions: FIG. 7
Description: In a preferred embodiment, an MTT proliferation assay (see, e.g., van de Loosdrechet, et al., 1994, J. Immunol. Methods 174: 311-320; Ohno et al., 1991, J. Immunol. Methods 145:199-203; Ferrari et al., 1990, J. Immunol. Methods 131: 165-172; Alley et al., 1988, Cancer Res. 48: 589-601; Carmichael et al., 1987, Cancer Res. 47:936-942; Gerlier et al., 1986, J. Immunol. Methods 65:55-63; Mosmann, 1983, J. Immunological Methods 65:55-63) is used to screen for a candidate agent in conjunction with rapamycin to inhibit the growth of rapamycin resistant cells. The cells are treated with chosen concentrations of the candidate agent and rapamycin for 4 to 72 hours. The cells are then incubated with a suitable amount of 3-(4,5-dimethylthiazol-2-yl)-2,5-diphenyitetrazoiium bromide (MTT) for 1-8 hours such that viable cells convert MTT into an intracellular deposit of insoluble formazan. After removing the excess MTT contained in the supernatant, a suitable MTT solvent, e.g., a DMSO solution, is added to dissolved the formazan. The concentration of […], which is proportional to the number of viable cells, is then measured by determining the optical density at 570 nm. A plurality of different concentrations of the candidate agent can be assayed to allow the determination of the concentrations of the candidate agent and rapamycin which causes 50% inhibition. […]

CO[C@H]1C[C@@H]2CC[C@@H](C)[C@@](O)(O2)C(=O)C(=O)N2CCCC[C@H]2C(=O)O[C@H]([C@H](C)C[C@@H]2CC[C@@H](O)[C@H](OC)C2)CC(=O)[C@H](C)/C=C(\C)[C@@H](O)[C@@H](OC)C(=O)[C@H](C)C[C@H](C)/C=C/C=C/C=C/1C [rapamycin, 9,10,12,13,14,21,22,23,24,25,26,27, 32,33,34,34a-hexadecahydro-9,27-dihydroxy-3-[2-(4-hydroxy-3-methoxycyclohexyl)-1-methylethyl]-10,21-dimethoxy-6,8,12,14,20,26-hexamethyl-23,27-epoxy-3H-pyrido[2,1-c][1,4]oxaazacyclohentricontine-1,5,11,28,29(4H,6H,31H)-pentone]
rapamycin concentration at which the growth of N2a cells is completely inhibited (N2a cell line): ≥ 1 µM | concentration at which N2a cells are sensitive to rapamycin mediated cell growth inhibition (mouse neuroblastoma N2a cells, MTT assay): 10 nM
